Test results from patent US11608335B2, “Somatostatin modulators and uses thereof” (CRINETICS PHARMACEUTICALS, INC., priority 2018, dated 2023).

These molecules were tested against human somatostatin receptor subtype 5 (Homo sapiens, UniProt P35346) (assay: cAMP assay for SST5R (inhibition of cAMP via human SST5 receptor)).
Sequence of human somatostatin receptor subtype 5 (P35346 whole entry): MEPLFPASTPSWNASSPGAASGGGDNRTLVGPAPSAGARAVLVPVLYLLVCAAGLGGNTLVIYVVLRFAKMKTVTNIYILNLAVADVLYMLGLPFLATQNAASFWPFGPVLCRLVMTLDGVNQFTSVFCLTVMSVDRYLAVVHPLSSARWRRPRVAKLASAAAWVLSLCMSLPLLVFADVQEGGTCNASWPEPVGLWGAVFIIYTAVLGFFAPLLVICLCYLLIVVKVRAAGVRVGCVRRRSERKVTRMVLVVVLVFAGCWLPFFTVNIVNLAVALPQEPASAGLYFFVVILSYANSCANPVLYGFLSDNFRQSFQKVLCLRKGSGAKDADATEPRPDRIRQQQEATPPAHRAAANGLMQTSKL
With `NC(=O)c1cccc(-c2cncc(-c3nc4cccc(F)c4[nH]3)c2N2CCC(N)(C(F)(F)F)C2)c1` (stereo not drawn) [Compound 2-64, 3-{4-[3-amino-3-(trifluoromethyl)pyrrolidin-1-yl]-5-(4-fluoro-1H-1,3-benzodiazol-2-yl)pyridin-3-yl}benzamide] the EC50 was greater than 1000 nM.
Work on `N#Cc1cc(F)cc(-c2cncc(-c3nc4cccc(F)c4[nH]3)c2N2C[C@@H](N)C[C@@H]2CO)c1` [Compound 2-66, 3-{4-[(2R,4S)-4-amino-2-(hydroxymethyl)pyrrolidin-1-yl]-5-(4-fluoro-1H-1,3-benzodiazol-2-yl)pyridin-3-yl}-5-fluorobenzonitrile] yielded an EC50 of 100 to 1000 nM.
For `NC(=O)c1cc(-c2cncc(-c3nc4cccc(F)c4[nH]3)c2N2CC[C@H](N)C2)ccc1F` [Compound 2-71, 5-{4-[(3S)-3-aminopyrrolidin-1-yl]-5-(4-fluoro-1H-1,3-benzodiazol-2-yl)pyridin-3-yl}-2-fluorobenzamide], the EC50 was 10 to 100 nM.
`NC(=O)c1cc(F)cc(-c2cncc(-c3nc4cccc(F)c4[nH]3)c2N2CC[C@H](N)C2)c1` [Compound 2-72, 3-{4-[(3S)-3-aminopyrrolidin-1-yl]-5-(4-fluoro-1H-1,3-benzodiazol-2-yl)pyridin-3-yl}-5-fluorobenzamide] gave an EC50 of less than 10 nM.
`COc1ccc(-c2cncc(-c3nc4cccc(F)c4[nH]3)c2N2CC[C@H](N)C2)cc1C(N)=O` [Compound 2-73, 5-{4-[(3S)-3-aminopyrrolidin-1-yl]-5-(4-fluoro-1H-1,3-benzodiazol-2-yl)pyridin-3-yl}-2-methoxybenzamide] was tested, and the EC50 was greater than 1000 nM.
For `Cn1c(-c2cncc(-c3cccc(C#N)c3)c2N2CC[C@H](N)C2)nc2c(F)cccc21` [Compound 2-74, 3-{4-[(3S)-3-aminopyrrolidin-1-yl]-5-(4-fluoro-1-methyl-1H-1,3-benzodiazol-2-yl)pyridin-3-yl}benzonitrile], the EC50 was less than 10 nM.
In the case of `Cn1c(-c2cncc(-c3cccc(C#N)c3)c2N2CC[C@H](N)C2)nc2c(Cl)cccc21` [Compound 2-75, 3-{4-[(3S)-3-aminopyrrolidin-1-yl]-5-(4-chloro-1-methyl-1H-1,3-benzodiazol-2-yl)pyridin-3-yl}benzonitrile], the EC50 is reported as less than 10 nM.
`N#Cc1cc(F)cc(-c2cncc(-c3nc4cccc(F)c4[nH]3)c2N2CCC(N)(C(F)(F)F)C2)c1` (stereo not drawn) [Compound 2-78, 3-{4-[3-amino-3-(trifluoromethyl)pyrrolidin-1-yl]-5-(4-fluoro-1H-1,3-benzodiazol-2-yl)pyridin-3-yl}-5-fluorobenzonitrile] was tested, and the EC50 was 100 to 1000 nM.
`N#Cc1cccc(-c2cncc(-c3nc4c(C(=O)O)cccc4[nH]3)c2N2CC[C@H](N)C2)c1` [Compound 2-82, 2-{4-[(3S)-3-aminopyrrolidin-1-yl]-5-(3-cyanophenyl)pyridin-3-yl}-1H-1,3-benzodiazole-4-carboxylic acid] showed an EC50 greater than 1000 nM.
Molecule `N#Cc1cccc(-c2cncc(-c3nc4c(C(N)=O)cccc4[nH]3)c2N2CC[C@H](N)C2)c1` [Compound 2-83, 2-{4-[(3S)-3-aminopyrrolidin-1-yl]-5-(3-cyanophenyl)pyridin-3-yl}-1H-1,3-benzodiazole-4-carboxamide] has an EC50 of 100 to 1000 nM.
With `C#Cc1cccc2[nH]c(-c3cncc(-c4cccc(C#N)c4)c3N3CC[C@H](N)C3)nc12` [Compound 2-84, 3-{4-[(3S)-3-Aminopyrrolidin-1-yl]-5-(4-ethynyl-1H-1,3-benzodiazol-2-yl)pyridin-3-yl}benzonitrile] the EC50 was less than 10 nM.
With `NC(=O)c1cccc(-c2cncc(-c3nc4cccc(F)c4[nH]3)c2N2CC[C@H](N)C2)c1` [Compound 2-85, 3-{4-[(3S)-3-aminopyrrolidin-1-yl]-5-(4-fluoro-1H-1,3-benzodiazol-2-yl)pyridin-3-yl}benzamide] the EC50 was less than 10 nM.
With `N#Cc1cc(F)cc(-c2cncc(-c3nc4cc(F)cc(F)c4[nH]3)c2N2CC[C@H](N)C2)c1` [Compound 2-87, 3-{4-[(3S)-3-aminopyrrolidin-1-yl]-5-(4,6-difluoro-1H-1,3-benzodiazol-2-yl)pyridin-3-yl}-5-fluorobenzonitrile] the EC50 was less than 10 nM.
Work on `N#Cc1cc(F)cc(-c2cncc(-c3nc4cccc(F)c4[nH]3)c2N2C[C@@H](N)C[C@H]2CO)c1` [Compound 2-88, 3-{4-[(2S,4S)-4-amino-2-(hydroxymethyl)pyrrolidin-1-yl]-5-(4-fluoro-1H-1,3-benzodiazol-2-yl)pyridin-3-yl}-5-fluorobenzonitrile] yielded an EC50 greater than 1000 nM.
For `CNC(=O)c1cccc2nc(-c3cncc(-c4cccc(C#N)c4)c3N3CC[C@H](N)C3)[nH]c12` [Compound 2-90, 2-{4-[(3S)-3-aminopyrrolidin-1-yl]-5-(3-cyanophenyl)pyridin-3-yl}-N-methyl-1H-1,3-benzodiazole-4-carboxamide], the EC50 was greater than 1000 nM.
`N#Cc1cccc(-c2cncc(-c3nc4c(CO)cccc4[nH]3)c2N2CC[C@H](N)C2)c1` [Compound 2-91, 3-{4-[(3S)-3-aminopyrrolidin-1-yl]-5-[7-(hydroxymethyl)-1H-1,3-benzodiazol-2-yl]pyridin-3-yl}benzonitrile] gave an EC50 of 100 to 1000 nM.
`CS(=O)(=O)c1cc(F)cc(-c2cncc(-c3nc4cccc(F)c4[nH]3)c2N2CC[C@H](N)C2)c1` [Compound 2-92, (3S)-1-[3-(4-fluoro-1H-1,3-benzodiazol-2-yl)-5-(3-fluoro-5-methanesulfonylphenyl)pyridin-4-yl]pyrrolidin-3-amine] gave an EC50 of 10 to 100 nM.
Work on `CS(=O)(=O)c1cccc(-c2cncc(-c3nc4cc(F)cc(F)c4[nH]3)c2N2CC[C@H](N)C2)c1` [Compound 2-93, (3S)-1-[3-(4,6-difluoro-1H-1,3-benzodiazol-2-yl)-5-(3-methanesulfonylphenyl)pyridin-4-yl]pyrrolidin-3-amine] yielded an EC50 of 100 to 1000 nM.
Molecule `N[C@H]1CCN(c2c(-c3cc(F)cc(Cl)c3)cncc2-c2nc3ccc(Cl)cc3[nH]2)C1` [Compound 2-95, (3S)-1-[3-(5-chloro-1H-1,3-benzodiazol-2-yl)-5-(3-chloro-5-fluorophenyl)pyridin-4-yl]pyrrolidin-3-amine] has an EC50 of 10 to 100 nM.
In the case of `Cc1ccc(F)c2nc(-c3cncc(-c4cc(F)cc(C(N)=O)c4)c3N3CC[C@H](N)C3)[nH]c12` [Compound 2-96, 3-{4-[(3S)-3-aminopyrrolidin-1-yl]-5-(7-fluoro-4-methyl-1H-1,3-benzodiazol-2-yl)pyridin-3-yl}-5-fluorobenzamide], the EC50 is reported as less than 10 nM.
Molecule `Cc1cccc2nc(-c3cncc(-c4cccc(C(N)=O)c4)c3N3CC[C@H](N)C3)[nH]c12` [Compound 2-97, 3-{4-[(3S)-3-aminopyrrolidin-1-yl]-5-(4-methyl-1H-1,3-benzodiazol-2-yl)pyridin-3-yl}benzamide] has an EC50 of less than 10 nM.
`Cc1cccc2nc(-c3cncc(-c4ccc(Cl)c(C#N)c4)c3N3CC[C@H](N)C3)[nH]c12` [Compound 2-98, 5-{4-[(3S)-3-aminopyrrolidin-1-yl]-5-(4-methyl-1H-1,3-benzodiazol-2-yl)pyridin-3-yl}-2-chlorobenzonitrile] showed an EC50 of less than 10 nM.
`N#Cc1cc(F)cc(-c2cncc(-c3nc4ccc(F)c(F)c4[nH]3)c2N2CC[C@H](N)C2)c1` [Compound 2-99, 3-{4-[(3S)-3-aminopyrrolidin-1-yl]-5-(4,5-difluoro-1H-1,3-benzodiazol-2-yl)pyridin-3-yl}-5-fluorobenzonitrile] was tested, and the EC50 was less than 10 nM.
`CCc1cccc2[nH]c(-c3cncc(-c4cccc(C#N)c4)c3N3CC[C@H](N)C3)nc12` [Compound 2-100, 3-{4-[(3S)-3-aminopyrrolidin-1-yl]-5-(4-ethyl-1H-1,3-benzodiazol-2-yl)pyridin-3-yl}benzonitrile] showed an EC50 of less than 10 nM.
`Cc1ccc2nc(-c3cncc(-c4cc(F)cc(Cl)c4)c3N3CC[C@H](N)C3)[nH]c2c1` [Compound 2-102, (3S)-1-[3-(3-chloro-5-fluorophenyl)-5-(5-methyl-1H-1,3-benzodiazol-2-yl)pyridin-4-yl]pyrrolidin-3-amine] was tested, and the EC50 was less than 10 nM.
In the case of `N#Cc1ccc2nc(-c3cncc(-c4cc(F)cc(Cl)c4)c3N3CC[C@H](N)C3)[nH]c2c1` [Compound 2-103, 2-{4-[(3S)-3-aminopyrrolidin-1-yl]-5-(3-chloro-5-fluorophenyl)pyridin-3-yl}-1H-1,3-benzodiazole-5-carbonitrile], the EC50 is reported as 10 to 100 nM.
`COc1ccc2nc(-c3cncc(-c4cc(F)cc(Cl)c4)c3N3CC[C@H](N)C3)[nH]c2c1` [Compound 2-104, (3S)-1-[3-(3-chloro-5-fluorophenyl)-5-(5-methoxy-1H-1,3-benzodiazol-2-yl)pyridin-4-yl]pyrrolidin-3-amine] gave an EC50 of 10 to 100 nM.
`Cc1cccc2nc(-c3cncc(-c4ccnc(C(N)=O)c4)c3N3CCC(C)(N)C3)[nH]c12` (stereo not drawn) [Compound 2-105, 4-(3-amino-3-methylpyrrolidin-1-yl)-5-(4-methyl-1H-1,3-benzodiazol-2-yl)-[3,4′-bipyridine]-2′-carboxamide] gave an EC50 of 10 to 100 nM.
`Cc1ccc(F)c2[nH]c(-c3cncc(-c4ccnc(C(N)=O)c4)c3N3CC[C@H](N)C3)nc12` [Compound 2-107, 4-[(3S)-3-aminopyrrolidin-1-yl]-5-(7-fluoro-4-methyl-1H-1,3-benzodiazol-2-yl)-[3,4′-bipyridine]-2′-carboxamide] gave an EC50 greater than 1000 nM.
For `Cn1c(-c2cncc(-c3cc(F)cc(C#N)c3)c2N2CC[C@H](N)C2)nc2ccccc21` [Compound 2-110, 3-{4-[(3S)-3-aminopyrrolidin-1-yl]-5-(1-methyl-1H-1,3-benzodiazol-2-yl)pyridin-3-yl}-5-fluorobenzonitrile], the EC50 was 10 to 100 nM.
Molecule `CCCn1c(-c2cncc(-c3cc(F)cc(C#N)c3)c2N2CC[C@H](N)C2)nc2ccccc21` [Compound 2-111, 3-{4-[(3S)-3-aminopyrrolidin-1-yl]-5-(1-propyl-1H-1,3-benzodiazol-2-yl)pyridin-3-yl}-5-fluorobenzonitrile] has an EC50 of 10 to 100 nM.
Work on `COCCn1c(-c2cncc(-c3cc(F)cc(C#N)c3)c2N2CC[C@H](N)C2)nc2ccccc21` [Compound 2-112, 3-{4-[(3S)-3-aminopyrrolidin-1-yl]-5-[1-(2-methoxyethyl)-1H-1,3-benzodiazol-2-yl]pyridin-3-yl}-5-fluorobenzonitrile] yielded an EC50 of 100 to 1000 nM.
For `N#CCn1c(-c2cncc(-c3cc(F)cc(C#N)c3)c2N2CC[C@H](N)C2)nc2ccccc21` [Compound 2-113, 3-{4-[(3S)-3-aminopyrrolidin-1-yl]-5-[1-(cyanomethyl)-1H-1,3-benzodiazol-2-yl]pyridin-3-yl}-5-fluorobenzonitrile], the EC50 was 100 to 1000 nM.
